# Reference: PMC3169401, “Structure of fructose bisphosphate aldolase from Bartonella henselae bound to fructose 1,6-bisphosphate” (Acta Crystallographica Section F: Structural Biology and …, 2011)
# Legend:
# [1] = target: T1, BhFBPA (Bartonella henselae fructose bisphosphate aldolase) (Bartonella henselae, UniProt Q8L207); assay: X-ray crystal structure of the complex ([…] A, cocrystallization); assay type: binding; conditions: covalent; Schiff base of C2 of linear FBP with Lys223 at the active site; 10 mM FBP, pH 8.5, 290 K
# T1 construct: gene fbab; full length, 343 residues; E. coli BL21(DE3) R3 Rosetta; 39495 Da; homotetramer; residues 1-340 modelled
# T1 sequence (Q8L207 1-343): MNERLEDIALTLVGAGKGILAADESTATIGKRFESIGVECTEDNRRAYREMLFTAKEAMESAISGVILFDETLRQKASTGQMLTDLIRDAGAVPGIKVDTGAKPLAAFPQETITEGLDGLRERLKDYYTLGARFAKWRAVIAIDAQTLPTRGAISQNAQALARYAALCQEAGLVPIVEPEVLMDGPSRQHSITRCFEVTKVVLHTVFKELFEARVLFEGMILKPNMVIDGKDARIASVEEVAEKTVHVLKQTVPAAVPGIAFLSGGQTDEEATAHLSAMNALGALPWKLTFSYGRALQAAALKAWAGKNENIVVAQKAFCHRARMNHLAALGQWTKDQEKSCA
# [2] = target: Bartonella henselae fructose bisphosphate aldolase (Bartonella henselae); assay: crystal structure; cocrystallised with 10 mM fructose 1,6-bisphosphate, vapor diffusion at 290 K, 0.2 M sodium acetate, 0.1 M Tris pH 8.5, 30% PEG 4000; four monomers in the asymmetric unit; 2.35 A
stoichiometry N [2],Compound,"X-ray crystal structure of the complex (2.35 A, cocrystallization) [1]"
–,"O=P(O)(O)OC[C@H]1OC(O)(COP(=O)(O)O)[C@@H](O)[C@@H]1O (some centres unmarked) [fructose 1,6-bisphosphate]",This structure has clear electron density for FBP bound at the active site
4,Bartonella henselae fructose bisphosphate aldolase (enzyme),–
